Experimental data taken from the NIST ThermoML archive (doi:10.1016/j.fluid.2016.02.031).

Test: xn = mol fraction of the nth substance listed
Settings: 100 kPa, Liquid; for viscosity: Concentric cylinders viscometry; for mass density: Vibrating tube method

c1ccncc1 [pyridine] + CCC(C)=O
Settings	mass density [kg/m3]	viscosity [mPa·s]
288.15 K, x1 = 0.1006	827.262	0.4555
288.15 K, x1 = 0.2019	844.704	0.4928
288.15 K, x1 = 0.3002	861.833	0.5309
288.15 K, x1 = 0.4004	879.307	0.5771
288.15 K, x1 = 0.4999	896.875	0.629
288.15 K, x1 = 0.597	914.2	0.6859
288.15 K, x1 = 0.6998	932.635	0.7603
288.15 K, x1 = 0.7945	949.796	0.8375
288.15 K, x1 = 0.8962	968.632	0.9269
288.15 K, x1 = 1	988.077	1.053
293.15 K, x1 = 0.1006	822.086	0.4381
293.15 K, x1 = 0.2019	839.557	0.4718
293.15 K, x1 = 0.3002	856.714	0.5088
293.15 K, x1 = 0.4004	874.211	0.5501
293.15 K, x1 = 0.4999	891.802	0.5983
293.15 K, x1 = 0.597	909.146	0.6505
293.15 K, x1 = 0.6998	927.59	0.7177
293.15 K, x1 = 0.7945	944.768	0.7876
293.15 K, x1 = 0.8962	963.61	0.8683
293.15 K, x1 = 1	983.053	0.9801
298.15 K, x1 = 0.1006	816.889	0.4203
298.15 K, x1 = 0.2019	834.388	0.4516
298.15 K, x1 = 0.3002	851.571	0.4867
298.15 K, x1 = 0.4004	869.094	0.5243
298.15 K, x1 = 0.4999	886.708	0.5689
298.15 K, x1 = 0.597	904.074	0.6164
298.15 K, x1 = 0.6998	922.541	0.6779
298.15 K, x1 = 0.7945	939.726	0.7418
298.15 K, x1 = 0.8962	958.58	0.8147
298.15 K, x1 = 1	978.02	0.9155
303.15 K, x1 = 0.1006	811.664	0.4019
303.15 K, x1 = 0.2019	829.195	0.4317
303.15 K, x1 = 0.3002	846.407	0.4649
303.15 K, x1 = 0.4004	863.96	0.5
303.15 K, x1 = 0.4999	881.597	0.5409
303.15 K, x1 = 0.597	898.986	0.5851
303.15 K, x1 = 0.6998	917.474	0.6402
303.15 K, x1 = 0.7945	934.676	0.6995
303.15 K, x1 = 0.8962	953.536	0.7669
303.15 K, x1 = 1	972.979	0.8568
308.15 K, x1 = 0.1006	806.406	0.3835
308.15 K, x1 = 0.2019	823.972	0.4117
308.15 K, x1 = 0.3002	841.216	0.4432
308.15 K, x1 = 0.4004	858.797	0.4758
308.15 K, x1 = 0.4999	876.465	0.5142
308.15 K, x1 = 0.597	893.873	0.555
308.15 K, x1 = 0.6998	912.381	0.6063
308.15 K, x1 = 0.7945	929.606	0.6588
308.15 K, x1 = 0.8962	948.477	0.7219
308.15 K, x1 = 1	967.923	0.8032
313.15 K, x1 = 0.1006	801.119	0.3653
313.15 K, x1 = 0.2019	818.72	0.392
313.15 K, x1 = 0.3002	835.996	0.4219
313.15 K, x1 = 0.4004	853.612	0.4528
313.15 K, x1 = 0.4999	871.309	0.4887
313.15 K, x1 = 0.597	888.742	0.5265
313.15 K, x1 = 0.6998	907.282	0.5741
313.15 K, x1 = 0.7945	924.517	0.6226
313.15 K, x1 = 0.8962	943.403	0.6809
313.15 K, x1 = 1	962.857	0.7546
318.15 K, x1 = 0.1006	795.798	0.3502
318.15 K, x1 = 0.2019	813.436	0.3728
318.15 K, x1 = 0.3002	830.749	0.401
318.15 K, x1 = 0.4004	848.397	0.4308
318.15 K, x1 = 0.4999	866.128	0.4642
318.15 K, x1 = 0.597	883.587	0.4996
318.15 K, x1 = 0.6998	902.151	0.544
318.15 K, x1 = 0.7945	919.408	0.5893
318.15 K, x1 = 0.8962	938.312	0.6417
318.15 K, x1 = 1	957.777	0.7103
323.15 K, x1 = 0.1006	790.436	0.3328
323.15 K, x1 = 0.2019	808.12	0.3539
323.15 K, x1 = 0.3002	825.467	0.3807
323.15 K, x1 = 0.4004	843.151	0.4095
323.15 K, x1 = 0.4999	860.918	0.4409
323.15 K, x1 = 0.597	878.406	0.4742
323.15 K, x1 = 0.6998	896.999	0.5159
323.15 K, x1 = 0.7945	914.28	0.5586
323.15 K, x1 = 0.8962	933.202	0.6072
323.15 K, x1 = 1	952.682	0.6698
328.15 K, x1 = 0.1006	785.039	0.3157
328.15 K, x1 = 0.2019	802.762	0.3354
328.15 K, x1 = 0.3002	820.152	0.361
328.15 K, x1 = 0.4004	837.875	0.3888
328.15 K, x1 = 0.4999	855.68	0.4185
328.15 K, x1 = 0.597	873.198	0.4502
328.15 K, x1 = 0.6998	891.821	0.4899
328.15 K, x1 = 0.7945	909.127	0.5297
328.15 K, x1 = 0.8962	928.07	0.5771
328.15 K, x1 = 1	947.564	0.6329
333.15 K, x1 = 0.1006	779.596	0.2989
333.15 K, x1 = 0.2019	797.367	0.3189
333.15 K, x1 = 0.3002	814.798	0.3422
333.15 K, x1 = 0.4004	832.563	0.3696
333.15 K, x1 = 0.4999	850.405	0.3985
333.15 K, x1 = 0.597	867.959	0.4291
333.15 K, x1 = 0.6998	886.618	0.4668
333.15 K, x1 = 0.7945	903.947	0.5039
333.15 K, x1 = 0.8962	922.92	0.549
333.15 K, x1 = 1	942.433	0.5997
